Measured values: article PMC12921516 (ACS Bio & Med Chem Au, 2025)
Entries after “also recorded” stand apart in the source; their conditions may differ.

Tests used:
[1] = test system: STZ-induced diabetic CD-1 mice; test: Insulin tolerance test (ITT); assay type: in vivo; conditions: for glycemia variation in ITT: single intragastric dose 50 mg/kg, insulin 0.75 IU after 30 min
Procedure: The studies were carried out on compounds 4b, 4g, and 5g using both normoglycemic CD1 mice and a mouse model of noninsulin-dependent diabetes mellitus (NIDDM). An oral glucose tolerance test (OGTT) was conducted on the normoglycemic mice to evaluate the hypoglycemic activity of the compounds, while an insulin tolerance test (ITT) was performed on hyperglycemic CD1 mice to assess the compounds' capacity to enhance insulin sensitivity in streptozotocin-induced diabetic mice. Pioglitazone and GA were included as positive controls. […] Healthy six-week-old male CD-1 mice, weighing between 30 and 40 g, were maintained at a temperature of 25 ± 2 °C, under a 12-h light/dark cycle and 45-65% humidity throughout the experimental period. The mice were provided with a rodent pelleted diet (Harlan Laboratories, Indianapolis, USA) and had access to water ad libitum. Sixteen hours before the experiment, all mice were fasted but still had free access to water. All animal procedures were conducted in accordance with the Mexican Federal Regulations for Animal Experimentation and Care (SAGARPA, NOM-062-ZOO-1999, Mexico) and received approval from the Institutional Animal Care and Use Committee, following guidelines outlined in the US National Institutes of Health publication (No. 85-23, revised 1985). Streptozotocin (STZ) was dissolved in citrate buffer (pH 4.5), while nicotinamide was dissolved in a normal physiological saline solution. The noninsulin-dependent diabetes (NIDD) mouse model was induced in overnight-fasted mice through a single intraperitoneal injection of STZ (100 mg/kg). Nicotinamide was administered 15 min prior, at a dose of 20 mg/kg via intraperitoneal injection. […] Roche). […] Animals were categorized into five groups, each consisting of four mice (n = 4). The experimental groups received an oral suspension of compounds 4b, 4g, and 5g, prepared in a 10% Tween 20/water solution, at a dosage of 50 mg/kg body weight. A control group was treated with only the 10% Tween 20 solution. The final group was administered pioglitazone at a dose of 45 mg/kg, which is recognized as a reference drug for insulin sensitization. To evaluate glucose levels, blood samples were collected from the tails of the mice at 0, 30, 60, 90, and 120 min after the administration of the vehicle, test compound, or drug. Blood glucose concentration was measured using a commercial glucometer (Accu-Chek, Performa; Roche) and the enzymatic glucose dehydrogenase method. The percentage variation in glycemia was calculated by comparing the selected postadministration glycemia (G x ) with the initial value (G0) using the following formula: %[…]=[(Gx-G0)/G0]×100 where G0 represents the initial glycemia values and Gx indicates the glycemia values at +30, + 60, + 90, and +120 min, respectively. To evaluate the ability of GA derivatives to enhance insulin sensitivity in STZ-induced diabetic CD-1 mice, compounds 4b, 4g, and 5g were tested. Glycyrrhetinic acid (GA) and Pioglitazone served as positive controls. The GA derivatives and the positive controls were administered to the diabetic animals, followed by the administration of human rapid-acting insulin (0.75 IU) after 30 min. Subsequently, glucose levels were measured every 15 min.

hTCPTP1–415 = biological target: T1, hTCPTP1–415 (Homo sapiens, UniProt P17706); test: TCPTP inhibitory activity; assay type: biochemical; conditions: pNPP substrate; tested up to 100 μM
T1 construct: h TCPTP 1–415 IC 50 (μM ± S.D); made in house
T1 sequence (P17706 1-415): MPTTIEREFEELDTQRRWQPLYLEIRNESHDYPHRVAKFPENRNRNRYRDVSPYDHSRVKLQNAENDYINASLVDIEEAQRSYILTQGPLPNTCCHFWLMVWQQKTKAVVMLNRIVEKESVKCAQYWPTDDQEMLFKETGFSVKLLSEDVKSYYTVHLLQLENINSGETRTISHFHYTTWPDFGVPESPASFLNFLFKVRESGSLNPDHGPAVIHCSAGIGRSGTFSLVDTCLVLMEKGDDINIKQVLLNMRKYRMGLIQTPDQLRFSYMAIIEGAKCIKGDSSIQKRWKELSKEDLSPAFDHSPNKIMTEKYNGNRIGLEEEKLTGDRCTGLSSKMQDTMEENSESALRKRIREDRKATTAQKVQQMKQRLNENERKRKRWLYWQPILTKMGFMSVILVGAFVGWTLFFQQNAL
Procedure: The effectiveness and safety of a PTP1B inhibitor primarily depend on its selectivity, given that protein tyrosine phosphatases share significant structural homology within their catalytic domains. […] Ertiprotafib was also included in this study.
Aliquots of 0–10 μL of the test compounds (triplicate) were taken and incubated for 15 min at 37 °C with 85 μL of Tris buffer solution (50 mM, pH 6.8) containing PTP1B enzyme and 5 μL of p-nitrophenyl phosphate substrate (pNPP, 10 mM). The absorbance of the hydrolysis product, p-nitrophenol (pNP), was measured at 405 nm using a 96-microplate absorbance reader (Accuris SmartReader 96). The inhibitory activity was determined according to eq . %enzyme=(A405b/A405c)×100 1 Where: % enzyme is the percentage of inhibition for PTP1B or TCPTP
The IC50 was calculated using regression analysis, eq : %inhibition=A100/1+(I/IC50)^s 2 Where: A100: Maximum inhibition

hPTP1B1–400 = biological target: T2, hPTP1B1–400 (Homo sapiens, UniProt P18031); test: PTP1B inhibition, pNPP hydrolysis, long form; assay type: biochemical; conditions: pNPP substrate, 15 min 37 °C, pH 6.8; ± S.D
T2 construct: h PTP1B 1–400 IC 50 (μM ± S.D); made in house
T2 sequence (P18031 1-400): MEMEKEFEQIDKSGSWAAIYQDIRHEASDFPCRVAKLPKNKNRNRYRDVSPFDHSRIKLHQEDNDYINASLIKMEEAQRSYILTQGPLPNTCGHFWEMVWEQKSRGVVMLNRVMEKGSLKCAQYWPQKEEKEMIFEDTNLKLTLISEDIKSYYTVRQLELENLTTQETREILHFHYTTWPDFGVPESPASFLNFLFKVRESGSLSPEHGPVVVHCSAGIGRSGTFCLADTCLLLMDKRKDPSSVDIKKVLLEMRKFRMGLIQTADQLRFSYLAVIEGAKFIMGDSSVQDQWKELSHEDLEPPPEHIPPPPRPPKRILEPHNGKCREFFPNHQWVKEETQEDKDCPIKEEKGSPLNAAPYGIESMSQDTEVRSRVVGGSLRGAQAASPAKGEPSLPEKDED

SMILES	ITT activity compared to GA ([1]; 50 mg/kg)	glycemia variation in ITT ([1]; 50 mg/kg)	IC50 (hTCPTP1–415) [nM]	IC50 (hPTP1B1–400) [nM]	glycemia variation in ITT [1]	ITT activity compared to pioglitazone ([1]; 50 mg/kg vs pioglitazone 45 mg/kg)	glycemic variation in ITT compared with normoglycemic mice ([1]; 50 mg/kg, after the 45th minute)
CC1(C)c2[nH]c3ccc(OC(F)F)cc3c2C[C@]2(C)[C@H]3C(=O)C=C4[C@@H]5C[C@@](C)(C(=O)O)CC[C@]5(C)CC[C@@]4(C)[C@]3(C)CC[C@@H]12 [compound 4b, (20β)-5′-(Difluoromethoxy)-11-oxo-1′H-oleana-2,12-dieno[3,2-b]indol-29-oic Acid]	greater potency than GA	significantly reduced glucose levels; also recorded: reduce glycemia variation starting from the 15th minute	> 100000	1580 ± 70	–	–	–
CC1(C)c2[nH]c3ccc(S(N)(=O)=O)cc3c2C[C@]2(C)[C@H]3C(=O)C=C4[C@@H]5C[C@@](C)(C(=O)O)CC[C@]5(C)CC[C@@]4(C)[C@]3(C)CC[C@@H]12 [compound 4g, (20β)-5′-Sulfamoyl-11-oxo-1′H-oleana-2,12-dieno[3,2-b]indol-29-oic Acid]	–	–	> 100000	2060 ± 120	reduce glycemia variation starting from the 15th minute	–	–
CC1(C)c2c(cnn2-c2ccc(S(N)(=O)=O)cc2)C[C@]2(C)[C@H]3C(=O)C=C4[C@@H]5C[C@@](C)(C(=O)O)CC[C@]5(C)CC[C@@]4(C)[C@]3(C)CC[C@@H]12 [compound 5g, (20β)-11-Oxo-2′-(4-sulfamoylphenyl)-2′H-oleana-2,12-dieno[3,2-c]pyrazol-29-oic Acid]	greater potency than GA	significantly reduced glucose levels; also recorded: reduce glycemia variation starting from the 15th minute	> 100000	1480 ± 180	–	superior activity compared to pioglitazone	no significant differences in glycemic variation
